Results published in patent US8163705B2, “Glycolipid and use thereof” (Riken, priority 2006, dated 2012).

Legend:
[1] = system: Splenocytes taken out from a mouse spleen; test: Experimental Example 2: cytokine (IFN-γ, IL-4) production by mouse splenocytes, sandwich ELISA of culture supernatant; format: cell-based; conditions: reagent 20 ng/mL, 48 hours, FIG. 2; for IFN-γ production amount and IL-4 production amount (cytokine production pattern): mouse splenocytes 2×10^5 cells/well, culture supernatant; for IL-4-predominant cytokine production compared with compound b (OCH): mouse splenocytes
Description: Splenocytes taken out from a mouse spleen were prepared using an RPMI1640 culture broth (produced by Sigma) containing 10% Fetal calf serum (FCS) at 2×10^5 cells/well (96-well plate). A reagent was added to this culture broth at a concentration of 20 ng/mL; 2 days later (48 hours later), the cytokine content in the culture supernatant was measured by a sandwich ELISA technique. The test substances used were compound 11, compound 12, compound 13 and compound 48 as obtained in Examples 1 to 3 and Reference Example, with compound a and a compound represented by the following formula (b) (OCH, hereinafter referred to as compound b) used as the comparators.
(§1) These findings confirm that the compounds of the present invention are effective as therapeutic drugs for pathologic conditions that can be ameliorated by IL-4.

[2] = system: Splenocytes from a mouse spleen; test: Experimental Example 1: cytokine (IFN-γ, IL-4) production by mouse splenocytes, sandwich ELISA of culture supernatant; format: cell-based; conditions: mouse splenocytes 2×10^5 cells/well, reagent 40 ng/mL, 72 hours, FIG. 1
Description: Splenocytes from a mouse spleen were prepared using an RPMI1640 culture broth (produced by Sigma) containing 10% Fetal calf serum (FCS) at 2×10^5 cells/well (96-well plate). A reagent was added to this culture broth at a concentration of 40 ng/mL; 3 days later (72 hours later), the cytokine content in the culture supernatant was measured by a sandwich ELISA technique. The test substances used were compound 11, compound 12 and compound 13 as obtained in Examples 1 to 3, with a compound represented by the following formula (a) (α-GalCer, hereinafter referred to as “compound a”) used as the comparator.
as §1

[3] = system: Splenocytes taken out from a mouse spleen; conditions: stated as known; cited from earlier work

CCCCCCCCCCCCCC[C@@H](O)[C@@H](O)[C@H](CO[C@H]1O[C@H](CO)[C@H](O)[C@H](O)[C@H]1O)NS(=O)(=O)c1ccccc1C [compound 12, (2S,3S,4R)-1-(α-D-galactopyranosyloxy)-2-(o-toluenesulfonylamino)-3,4-octadecanediol]
IFN-γ production amount and IL-4 production amount (cytokine production pattern) [1]: IL-4-predominant cytokine production pattern with smaller amounts of IFN-γ produced
IL-4-predominant cytokine production compared with compound b (OCH) [1]: capable of inducing IL-4-predominant cytokine production to higher extents than compound b
IFN-γ production amount and IL-4 production amount (cytokine production pattern) [2]: IL-4-predominant cytokine production pattern

CCCCCCCCCCCCCCCCCCCCCCCCCC(=O)N[C@@H](COC1OC(CO)C(O)C(O)C1O)[C@H](O)[C@H](O)CCCCCCCCCCCCCC (some centres unmarked) [compound a, reference compound]
IFN-γ production amount and IL-4 production amount (cytokine production pattern) [1]: produced both IFN-γ and IL-4 in large amounts
IFN-γ production amount and IL-4 production amount (cytokine production pattern) [2]: produced both IFN-γ and IL-4 in large amounts

CCCCCCCCCCCCCCCCCCCCCCCC(=O)N[C@@H](COC1OC(CO)C(O)C(O)C1O)[C@H](O)[C@H](O)CCCCC (some centres unmarked) [compound b]
cytokine production pattern as known for the comparator [3]: induces IL-4-predominant cytokine production

CCCCCCCCCCCCCC[C@@H](O)[C@@H](O)[C@H](CO[C@H]1O[C@H](CO)[C@H](O)[C@H](O)[C@H]1O)NS(=O)(=O)c1ccc(C)cc1 [compound 11, (2S,3S,4R)-1-(α-D-galactopyranosyloxy)-2-(p-toluenesulfonylamino)-3,4-octadecanediol]
IFN-γ production amount and IL-4 production amount (cytokine production pattern) [1]: IL-4-predominant cytokine production pattern with smaller amounts of IFN-γ produced
IL-4-predominant cytokine production compared with compound b (OCH) [1]: capable of inducing IL-4-predominant cytokine production to higher extents than compound b
IFN-γ production amount and IL-4 production amount (cytokine production pattern) [2]: IL-4-predominant cytokine production pattern

CCCCCCCCCCCCCC[C@@H](O)[C@@H](O)[C@H](CO[C@H]1O[C@H](CO)[C@H](O)[C@H](O)[C@H]1O)NS(=O)(=O)c1cccc(C)c1 [compound 13, (2S,3S,4R)-1-(α-D-galactopyranosyloxy)-2-(m-toluenesulfonylamino)-3,4-octadecanediol]
IFN-γ production amount and IL-4 production amount (cytokine production pattern) [1]: IL-4-predominant cytokine production pattern with smaller amounts of IFN-γ produced
IL-4-predominant cytokine production compared with compound b (OCH) [1]: capable of inducing IL-4-predominant cytokine production to higher extents than compound b
IFN-γ production amount and IL-4 production amount (cytokine production pattern) [2]: IL-4-predominant cytokine production pattern

CCCCCCCCCCCCCCCCS(=O)(=O)N[C@@H](CO[C@H]1O[C@H](CO)[C@H](O)[C@H](O)[C@H]1O)[C@H](O)[C@H](O)CCCCCCCCCCCCCC [compound 48, (2S,3S,4R)-1-(α-D-galactopyranosyloxy)-2-(hexadecanesulfonylamino)-3,4-octadecanediol]
IFN-γ production amount and IL-4 production amount (cytokine production pattern) [1]: IL-4-predominant cytokine production pattern with smaller amounts of IFN-γ produced
IL-4-predominant cytokine production compared with compound b (OCH) [1]: capable of inducing IL-4-predominant cytokine production to higher extents than compound b
